Assay results reported in PMC11571215, “Optimization of Antiproliferative Properties of Triimine Copper(II) Complexes” (Journal of Medicinal Chemistry, 2024).
Like-named read-outs stand apart in the source and are kept apart here.

Experiments:
[1] = system: A2780 cells (ovarian carcinoma); parameters: method as in PMID 29688241; details: previously published complex, cited from earlier work
[2] = system: normal human primary dermal fibroblasts; parameters: method as in PMID 29688241; details: 48 h; previously published complex; cited from earlier work
[3] = system: HCT116 cells (colorectal carcinoma); parameters: method as in PMID 29688241; details: previously published complex, cited from earlier work
[4] = system: HCT116-DoxR cells (doxorubicin resistant colorectal carcinoma); assay: MTS cell viability assay, HCT116-DoxR 2D; assay type: cell-based, human; details: for IC50: 48 h of exposure
Experimental: (§1) The antiproliferative effect of the Cu(II) complexes in tumor and healthy cell lines was assessed through the MTS assay, a colorimetric method that is widely used to evaluate cellular viability, specifically mitochondrial viability.[53],[54] Cellular viability was determined after 48 h exposure to a concentration range (0.1–50 μM) of Cu(II) complexes in three tumor cell lines. […] Additionally, the viability of healthy primary dermal fibroblasts was performed as a comparison of the complexes’ antiproliferative effects in normal cells.
(§2) Cellular viability assays were performed using HCT116, HCT116-DoxR, and A2780 cancer cell lines as well as normal human primary fibroblasts. Cells were seeded at a density of 0.75 × 10^5 cells/mL in 96-well plates and incubated at 37 °C with 5% (v/v) CO2 for 24 h. After this incubation period, the copper complexes were accurately weighed and immediately dissolved in 100% (v/v) dimethyl sulfoxide (DMSO). Subsequently, the complexes were diluted to the final concentration using a cell culture medium. The culture medium in each well was replaced with fresh medium containing varying concentrations of the complexes (ranging from 0.01 to 50 μM). Negative controls contained culture medium with 0.1% (v/v) DMSO, and positive controls contained 0.4 μM Dox.
(§3) After an additional 48 h of incubation under the same conditions, cellular viability was assessed using the CellTiter 96 Aqueous One Solution Cell Proliferation Assay kit (Promega, Madison, USA). Metabolically active cells contain mitochondrial dehydrogenases that can reduce 3-(4,5-dimethylthiazol-2-yl)-5-(3-carboxymethoxyphenyl)-2-(4-sulfophenyl)-2H-tetrazolium, the inner salt (MTS) to formazan. The absorbance of formazan, measured at 490 nm in a microplate reader (Tecan Infinite M200, Tecan, Männedorf, Switzerland), is directly proportional to the number of viable cells.[104]
(§4) The cell viability versus concentration graphics were analyzed using Prism 8 software (GraphPad) to determine the half-maximal inhibitory concentration (IC50) of each complex for the respective cell line. Additionally, the selective index (SI) for each complex was calculated by dividing the IC50 of human fibroblasts by the IC50 values of the tested cancer cell lines.

[5] = system: normal human primary dermal fibroblasts; assay: MTS cell viability assay, normal fibroblasts; assay type: cell-based; details: 48 h of exposure
Experimental: as §1, §2
After an additional 48 h of incubation under the same conditions, cellular viability was assessed using the CellTiter 96 Aqueous One Solution Cell Proliferation Assay kit (Promega, Madison, USA). […] The absorbance of formazan, measured at 490 nm in a microplate reader (Tecan Infinite M200, Tecan, Männedorf, Switzerland), is directly proportional to the number of viable cells.[104]
as §4

[6] = system: A2780 cells (ovarian carcinoma); assay: MTS cell viability assay, A2780; assay type: cell-based, human
Experimental: as §1, §2, §3, §4

[7] = system: HCT116 cells (colorectal carcinoma); assay: MTS cell viability assay, HCT116 2D; assay type: cell-based, human
Experimental: as §1, §2, §3, §4

[8] = system: HCT116-DoxR cells (doxorubicin resistant colorectal carcinoma); parameters: method as in PMID 37311060; details: previously determined; read-out: IC50 for the HCT116-DoxR cell line; cited from earlier work
HCT116-DoxR cells = assay: Autophagy induction (CYTO-ID green, flow cytometry); assay type: cell-based, human; details: 48 h; complexes at IC50, Dox 6 μM, Cis 5 μM, rapamycin 1500 nM
Description: Furthermore, previous studies have shown that complexes containing terpyridine derivatives have the ability to trigger both apoptosis and autophagy cell death mechanisms in cancer cells simultaneously.[38] This convergence of death pathways may arise from an adaptive response of the heterogeneous tumor cell population.[38] In this context, understanding the mechanism by which cells lose viability in the presence of the two Cu(II) complexes with the simultaneous induction of apoptosis and autophagy becomes crucial. Autophagy is a highly conserved catabolic process crucial for maintaining cellular homeostasis but is also associated with type II programmed cell death.[75] It involves intracellular degradation through autophagolysosomes responsible for breaking down luminal content and enabling recycling of cellular components.[76],[77] The assessment of the complexes’ ability to induce autophagy was conducted using flow cytometry, employing the CYTO-ID green detection reagent. This probe emits green fluorescence, marking the autophagic vacuoles within the cell. Higher fluorescence indicates a greater proportion of autophagolysosomes.[78] Three positive controls were used: Dox, Cis, and rapamycin (1500 nM), whose concentration was previously optimized for the HCT116-DoxR cell line in the laboratory.[64] Rapamycin is known to induce autophagy through its mechanistic target, mTOR.
Cell death via autophagy was evaluated using the Autophagy Assay Kit (ab139484; Abcam, Cambridge, United Kingdom), according to the manufacturers’ instructions. HCT116-DoxR cells were seeded at a density of 1 × 10^5 cells/mL in 6-well plates for 24 h, under the same conditions described before. After this incubation period, the culture medium was replaced with a fresh medium containing the copper complexes under evaluation at their IC50 concentration. A 0.1% (v/v) DMSO solution was used as the negative (vehicle) control, and 6 μM Dox and 5 μM Cis were used as positive controls. The cells were incubated again for 48 h. Rapamycin (1500 nM) was also added as a positive control, and it was added 18 h before the end of the 48 h incubation. After this period, the supernatant was discarded, and each well was washed with PBS 1×. Subsequently, cells were detached using TrypLE Express and washed with phenol red-free DMEM medium containing 5% (v/v) FBS. Cells were incubated with Green Stain Solution in phenol red-free DMEM medium containing 5% (v/v) FBS for 30 min at RT. After this period, the samples were washed and then resuspended in Assay Buffer 1×. The samples were analyzed using an Attune Acoustic Focusing Flow Cytometer (Life Technologies, Carlsbad, USA), and the results were analyzed via the Attune Cytometric software.

[9] = 48 h of exposure, MTS, relative IC50, mean + SEM
[10] = free ligands, at least two independent assays, read-out: IC50 of ligands HCT116-DoxR

**Q.** For `COc1ccc(-c2cc(-c3ccccn3)nc(-c3ccccn3)c2)c2ccccc12.[Cl][Cu][Cl]` [Cu1c], which IC50 ([1]; 48 h) is on record?
**A.** 950 ± 50 nM

**Q.** And the “SI A2780” value ([1]; IC50 fibroblasts / IC50 A2780)?
**A.** 34.5

**Q.** What about the IC50 [2] of the same compound?
**A.** 32780 ± 60 nM

**Q.** And the IC50 ([3]; 48 h)?
**A.** 400 ± 60 nM

**Q.** What about the “SI HCT116” value ([3]; IC50 fibroblasts / IC50 HCT116) of the same compound?
**A.** 82

**Q.** What does the source list for `COc1ccc2cc(-c3cc4[n+]5c(c3)-c3cccc[n+]3[Cu-3]5([Cl])([Cl])[n+]3ccccc3-4)ccc2c1` [Cu1d]?
**A.** IC50 ([4]; MTS, relative IC50, mean + SEM, read-out: IC50 HCT116-DoxR (2D)): 310 ± 10 nM; SI HCT116-DoxR ([4]; ratio IC50 fibroblasts / IC50 HCT116-DoxR): 20.7; IC50 [5]: 6420 ± 500 nM; IC50 [6, 9]: 480 ± 80 nM; SI A2780 ([6]; ratio IC50 fibroblasts / IC50 A2780): 13.4; IC50 [7, 9]: 360 ± 40 nM; SI HCT116 ([7]; ratio IC50 fibroblasts / IC50 HCT116): 17.8

**Q.** For `c1ccc(-c2cc(-c3cccc4ccccc34)cc(-c3ccccn3)n2)nc1` [L1a], which IC50 [4, 10] is on record?
**A.** ~180 nM

**Q.** Which IC50 [4, 10] does the source give for `c1ccc(-c2cc(-c3ccc4ccccc4c3)cc(-c3ccccn3)n2)nc1` [L1b] here?
**A.** 240 ± 400 nM

**Q.** With `COc1ccc2cc(-c3cc(-c4ccccn4)nc(-c4ccccn4)c3)ccc2c1` [L1d] as the compound, how does the IC50 [4, 10] read?
**A.** 200 ± 50 nM

**Q.** For `c1ccc2c(-c3cc(-c4nccs4)nc(-c4nccs4)c3)cccc2c1` [L2a], which IC50 [4, 10] is on record?
**A.** > 50000 nM

**Q.** Which IC50 [4, 10] does the source give for `c1ccc2cc(-c3cc(-c4nccs4)nc(-c4nccs4)c3)ccc2c1` [L2b] here?
**A.** > 50000 nM

**Q.** Which IC50 [4, 10] does the source give for `COc1ccc(-c2cc(-c3nccs3)nc(-c3nccs3)c2)c2ccccc12` [L2c] here?
**A.** ~11500 nM

**Q.** Which IC50 [4, 10] does the source give for `COc1ccc2cc(-c3cc(-c4nccs4)nc(-c4nccs4)c3)ccc2c1` [L2d] here?
**A.** ~14600 nM

**Q.** Which IC50 [8] does the source give for `CC(C)(C)OO` [TBHP, Tert-butyl hydroperoxide] here?
**A.** 42000 nM

**Q.** Which “increase in autophagic vesicles compared to 0.1% DMSO control” value (HCT116-DoxR cells) does the source give for `CO[C@H]1C[C@@H]2CC[C@@H](C)[C@@](O)(O2)C(=O)C(=O)N2CCCC[C@H]2C(=O)O[C@H]([C@H](C)C[C@@H]2CC[C@@H](O)[C@H](OC)C2)CC(=O)[C@H](C)/C=C(\C)[C@@H](O)[C@@H](OC)C(=O)[C@H](C)C[C@H](C)/C=C/C=C/C=C/1C` [rapamycin, Rapamycin] here?
**A.** increase in green fluorescence intensity
